# Experimental data from patent publication US8299074B2, “P38 MAP kinase inhibitors” (RespiVert Ltd., priority 2008, dated 2012).
# Read-outs that look alike come from different tables or passages of the source.
# How the values were obtained:
# THP-1 cells = test: LPS-induced TNF alpha release in THP-1 cells; format: cell-based; conditions: Homo sapiens
# Description: LPS-Induced TNF Alpha Release in THP-1 Cells: Potency […] Coli; O111:B4, Sigma) for 4 hr and the supernatant collected for determination of TNFα concentration by sandwich ELISA (Duo-set, R&D systems). The inhibition of TNFα production was calculated at each concentration by comparison with vehicle control.
# BEAS2B cells = test: Poly I:C-induced ICAM-1 induction in BEAS2B cells; format: cell-based; conditions: Homo sapiens, BEAS-2B, read-out: BEAS2B (polyIC) ICAM1 IC50
# Summary of the method: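 Poly I:C (1 ug/ml) transfected into BEAS2B cells after 2 h compound pre-incubation. Surface ICAM-1 measured by cell-based ELISA 18 h post-transfection (HRP, OD450–655), corrected for cell number by OD595.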
# p38 MAPK alpha (MAPK14) = target: T1, p38 MAPK alpha (MAPK14) (Homo sapiens, UniProt Q16539); test: Enzyme inhibition assay, p38 MAPK alpha (FRET, Z-LYTE, via MAPKAP-K2); format: biochemical; conditions: Table 3; read-out: Enzyme p38α IC50
# T1 construct: purchased Invitrogen
# T1 sequence (Q16539 whole entry): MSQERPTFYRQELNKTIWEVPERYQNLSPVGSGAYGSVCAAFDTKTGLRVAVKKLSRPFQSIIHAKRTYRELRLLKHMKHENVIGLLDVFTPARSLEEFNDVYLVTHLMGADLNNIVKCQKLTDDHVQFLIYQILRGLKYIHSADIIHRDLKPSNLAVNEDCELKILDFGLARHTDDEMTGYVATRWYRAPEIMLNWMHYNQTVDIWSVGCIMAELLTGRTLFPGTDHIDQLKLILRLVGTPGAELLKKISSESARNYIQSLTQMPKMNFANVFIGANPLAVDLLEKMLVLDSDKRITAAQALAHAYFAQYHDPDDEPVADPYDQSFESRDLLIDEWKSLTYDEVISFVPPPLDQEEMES
# [1] = tested on: Differentiated U937 cells; test: MTT assay (cell viability); format: cell-based, human; conditions: loss of cell viability at 1 μg/ml
# Summary of the method: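 Differentiated U937 cells pre-incubated with compound 4 h in 5% FCS or 24 h in 10% FCS; MTT read at 550 nm after DMSO solubilisation. Percentage loss of viability relative to 0.5% DMSO vehicle; apparent increases appear as negative percentages.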
# U937 cells [2] = test: LPS-induced TNF alpha release in U937 cells; format: cell-based
# Summary of the method: (§1)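 U937 cells differentiated with PMA (100 ng/ml) for 48 to 72 hours, pre-treated with compound for 2 hrs, then stimulated with E. coli O111:B4 LPS for 4 hrs. Supernatant TNFα and IL-8 measured by sandwich ELISA; inhibition at each concentration versus vehicle control.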
# U937 cells [3] = test: LPS-induced IL-8 release in U937 cells; format: cell-based; conditions: Homo sapiens, read-out: DU937 (LPS) IL-8 IC50
# Summary of the method: as §1
# [4] = THP-1, Table 3, read-out: THP-1 (LPS) TNFα IC50
# [5] = Homo sapiens; read-out: DU937 (LPS) TNFα REC50
# [6] = THP-1, read-out: THP-1 (LPS) TNFα IC50
# [7] = Homo sapiens, read-out: DU937 (LPS) TNFα REC50
Compound,IC50 (THP-1 cells; [4]),IC50 (p38 MAPK alpha (MAPK14)),EC50 (U937 cells [2]; [5]),IC50 (U937 cells [3]; Table 3),IC50 (BEAS2B cells; Table 3),"DU937 (cell viability) MTT assay 4 h ([1]; Table 3, first MTT column)","DU937 (cell viability) MTT assay 4 h ([1]; Table 3, second MTT column)",IC50 (THP-1 cells; [6]),IC50 (BEAS2B cells),EC50 (U937 cells [2]; [7]),IC50 (U937 cells [3])
"Cc1ccc(-n2nc(C(C)(C)C)cc2NC(=O)Nc2ccc(Oc3ccnc(NC(=O)N4CCN(C)CC4)c3)c3ccccc23)cc1 [Example 43, N-(4-((4-(3-(3-(tert-Butyl)-1-(p-tolyl)-1H-pyrazol-5-yl)ureido)naphthalen-1-yl)oxy)pyridin-2-yl)-4-methylpiperazine-1-carboxamide]",< 10 nM,< 10 nM,< 10 nM,< 10 nM,< 10 nM,− (<=30%),− (<=30%),,,,
"Cc1ccc(-n2nc(C(C)(C)C)cc2NC(=O)Nc2ccc(Oc3ccnc(NC(=O)N(C)C)c3)c3ccccc23)cc1 [Example 44, 3-(4-((4-(3-(3-(tert-Butyl)-1-(p-tolyl)-1H-pyrazol-5-yl)ureido)naphthalen-1-yl)oxy)pyridin-2-yl)-1,1-dimethylurea]",,< 5000 nM,,,,− (<=30%),− (<=30%),< 10 nM,< 10 nM,< 10 nM,< 10 nM
"Cc1ccc(-n2nc(C(C)(C)C)cc2NC(=O)Nc2ccc(Oc3ccnc(NC(=O)N4CCCCC4)c3)c3ccccc23)cc1 [Example 45, N-(4-((4-(3-(3-(tert-Butyl)-1-(p-tolyl)-1H-pyrazol-5-yl)ureido)naphthalen-1-yl)oxy)pyridin-2-yl)piperidine-1-carboxamide]",< 10 nM,< 10 nM,< 10 nM,< 10 nM,< 10 nM,− (<=30%),− (<=30%),,,,
"Cc1ccc(-n2nc(C(C)(C)C)cc2NC(=O)Nc2ccc(Oc3ccnc(NC(=O)NC4CCN(C)CC4)c3)c3ccccc23)cc1 [Example 50, N-(1-Methyl)piperidin-4-yl-N′-4-(4-(3-(3-tert-butyl-1-p-tolyl-1H-pyrazol-5-yl)ureido)naphthalen-1-yloxy)pyridin-2-ylurea]",,< 10 nM,,,,− (<=30%),+ (>30%),< 10 nM,< 10 nM,< 10 nM,< 10 nM
"Cc1ccc(-n2nc(C(C)(C)C)cc2NC(=O)Nc2ccc(Oc3ccnc(NC(=O)N4CC[C@@H](N(C)C)C4)c3)c3ccccc23)cc1 [Example 54, (R)—N-(4-(4-(3-(3-tert-Butyl-1-p-tolyl-1H-pyrazol-5-yl)ureido)naphthalen-1-yloxy)pyridin-2-yl)-3-(dimethylamino)pyrrolidine-1-carboxamide]",< 10 nM,< 10 nM,< 10 nM,< 10 nM,< 10 nM,− (<=30%),− (<=30%),,,,
"Cc1ccc(-n2nc(C(C)(C)C)cc2NC(=O)Nc2ccc(Oc3ccnc(NC(=O)N4CCCC4)c3)c3ccccc23)cc1 [Example 55, N-(4-(4-(3-(3-tert-Butyl-1-p-tolyl-1H-pyrazol-5-yl)ureido)naphthalen-1-yloxy)pyridin-2-yl)pyrrolidine-1-carboxamide]",< 10 nM,< 10 nM,< 10 nM,< 10 nM,< 10 nM,− (<=30%),− (<=30%),,,,
COCCNC(=O)CNC(=O)Nc1cc(Oc2ccc(NC(=O)Nc3cc(C(C)(C)C)nn3-c3ccc(C)cc3)c3ccccc23)ccn1 [Example 62],< 10 nM,< 10 nM,< 10 nM,< 10 nM,< 10 nM,− (<=30%),− (<=30%),,,,

# Further lines, with some results ahead:
IC50 (THP-1 cells; [4]),IC50 (p38 MAPK alpha (MAPK14)),EC50 (U937 cells [2]; [5]),IC50 (U937 cells [3]; Table 3),Compound,IC50 (BEAS2B cells; Table 3),"DU937 (cell viability) MTT assay 4 h ([1]; Table 3, first MTT column)","DU937 (cell viability) MTT assay 4 h ([1]; Table 3, second MTT column)",IC50 (THP-1 cells; [6]),IC50 (BEAS2B cells),EC50 (U937 cells [2]; [7]),IC50 (U937 cells [3])
< 5000 nM,< 10 nM,< 10 nM,< 10 nM,"Cc1ccc(-n2nc(C(C)(C)C)cc2NC(=O)Nc2ccc(Oc3ccnc(NC(=O)N(C)CCN4CCOCC4)c3)c3ccccc23)cc1 [Example 46, N-Methyl-N-(2-(morpholin-4-yl)ethyl)-N′-4-(4-(3-(3-tert-butyl-1-p-tolyl-1H-pyrazol-5-yl)ureido)naphthalen-1-yloxy)pyridin-2-ylurea]",< 5000 nM,− (<=30%),− (<=30%),,,,
< 10 nM,< 10 nM,< 10 nM,< 10 nM,"Cc1ccc(-n2nc(C(C)(C)C)cc2NC(=O)Nc2ccc(Oc3ccnc(NC(=O)NCCCCN4CCOCC4)c3)c3ccccc23)cc1 [Example 47, N-(4-(Morpholin-4-yl)butyl)-N′-4-(4-(3-(3-tert-butyl-1-p-tolyl-1H-pyrazol-5-yl)ureido)naphthalen-1-yloxy)pyridin-2-ylurea]",< 10 nM,− (<=30%),− (<=30%),,,,
< 10 nM,< 10 nM,< 10 nM,< 5000 nM,"Cc1ccc(-n2nc(C(C)(C)C)cc2NC(=O)Nc2ccc(Oc3ccnc(NC(=O)NCc4cc(C)no4)c3)c3ccccc23)cc1 [Example 49, N-(3-Methylisoxazol-5-yl)methyl-N′-4-(4-(3-(3-tert-butyl-1-p-tolyl-1H-pyrazol-5-yl)ureido)naphthalen-1-yloxy)pyridin-2-ylurea]",< 5000 nM,− (<=30%),− (<=30%),,,,
< 10 nM,< 10 nM,< 10 nM,< 10 nM,"Cc1ccc(-n2nc(C(C)(C)C)cc2NC(=O)Nc2ccc(Oc3ccnc(NC(=O)N4CCC(O)CC4)c3)c3ccccc23)cc1 [Example 51, N-(4-(4-(3-(3-tert-Butyl-1-p-tolyl-1H-pyrazol-5-yl)ureido)naphthalen-1-yloxy)pyridin-2-yl)-4-hydroxypiperidine-1-carboxamide]",< 10 nM,− (<=30%),+ (>30%),,,,
< 10 nM,< 5000 nM,< 10 nM,< 10 nM,"Cc1ccc(-n2nc(C(C)(C)C)cc2NC(=O)Nc2ccc(Oc3ccnc(NC(=O)NCCCn4ccnc4)c3)c3ccccc23)cc1 [Example 52, N-(3-(Imidazol-1-yl)propyl)-N′-4-(4-(3-(3-tert-butyl-1-p-tolyl-1H-pyrazol-5-yl)ureido)naphthalen-1-yloxy)pyridin-2-ylurea]",< 10 nM,− (<=30%),− (<=30%),,,,
< 10 nM,< 10 nM,< 10 nM,< 5000 nM,"Cc1ccc(-n2nc(C(C)(C)C)cc2NC(=O)Nc2ccc(Oc3ccnc(NC(=O)NCC(=O)N4CCCC4)c3)c3ccccc23)cc1 [Example 53, N-(2-(3-(4-(4-(3-(3-tert-Butyl-1-p-tolyl-1H-pyrazol-5-yl)ureido)naphthalen-1-yloxy)pyridin-2-yl)ureido)acetyl)pyrrolidine]",< 10 nM,− (<=30%),− (<=30%),,,,
< 10 nM,< 10 nM,< 5000 nM,< 5000 nM,"Cc1ccc(-n2nc(C(C)(C)C)cc2NC(=O)Nc2ccc(Oc3ccnc(NC(=O)NCC(=O)NCCN4CCOCC4)c3)c3ccccc23)cc1 [Example 57, 2-(3-(4-(4-(3-(3-tert-Butyl-1-p-tolyl-1H-pyrazol-5-yl)ureido)naphthalen-1-yloxy)pyridin-2-yl)ureido)-N-(2-morpholinoethyl)acetamide]",< 5000 nM,− (<=30%),− (<=30%),,,,
< 10 nM,< 10 nM,< 10 nM,< 10 nM,"Cc1ccc(-n2nc(C(C)(C)C)cc2NC(=O)Nc2ccc(Oc3ccnc(NC(=O)NCC(=O)N4CCN(C)CC4)c3)c3ccccc23)cc1 [Example 61, 1-(2-(3-(4-(4-(3-(3-tert-Butyl-1-p-tolyl-1H-pyrazol-5-yl)ureido)naphthalen-1-yloxy)pyridin-2-yl)ureido)acetyl)-4-methylpiperazine]",< 10 nM,− (<=30%),− (<=30%),,,,
